Legend:
glioblastoma = test: Vascular biomarker analysis of control and Avastin-treated glioblastoma (3D tumor vasculature, tumor wrap); type: in vivo
Text: X-ray images of a control tumor and an Avastin-treated tumor are shown side by side in FIG. 43. […] FIGS. 46 and 47 show exemplary tumor wraps of the same control and Avastin-treated tumors. FIGS. 48-52 exemplify visualization of the distribution of microvascular density within two exemplary tumors.
In some embodiments, the assessment of vascular hot spots and/or necrotic regions within a diseased tissue, for example a malignant tumor, may be used in the evaluation of a treatment targeting said diseased tissue, for example the administration of a chemotherapeutic agent. FIG. 54 exemplify a comparison of vascular hot spots and necrotic regions in glioblastoma treated with Avastin to vascular hot spots and necrotic regions in non-treated control glioblastoma. […] Assessment of an exemplary vascular density related biomarker, total vessel density (number of vessels per given volume), in Avastin-treated glioblastoma and untreated controls is depicted in FIG. 56. Assessment of another exemplary vascular density related biomarker, mean vessel density (average number of vessels over a number of volume units, for example defined by the boundary of a tumor), in Avastin-treated glioblastoma and untreated controls as depicted in FIG. 57. Assessment of an exemplary vascular density related biomarker, total vessel volume density (number of voxels belonging to a vessel within a given volume), in Avastin-treated glioblastoma and untreated controls is depicted in FIG. 58. Assessment of another exemplary vascular density related biomarker, mean vessel volume density (average number of voxels belonging to a vessel within a number of volume units, for example defined by the boundary of a tumor), in Avastin-treated glioblastoma and untreated controls as depicted in FIG. 59. In some embodiments, a boundary of a tissue, for example a tumor, are determined based on vascular imaging and modeling data, and a subsequent assessment qualifying a voxel within those boundaries is carried out. In some embodiments, a biomarker is […] in a plurality of such qualified voxels. For example, the boundary of a solid tumor may be determined based on the abnormal vasculature associated with malignant tissue, for example by “tumor-wrap”, and vascular density related biomarkers may be assessed for tissue within that boundary.
It should be appreciated, that the biomarkers related to by some aspects of this invention may be useful in a wide variety of diagnostic and therapeutic modalities and applications, some non-limiting examples of which are described herein.

[1] = test system: human non-small cell lung tumor cell line (A549) subcutaneous tumors; test: Xenotopic tumor model, response to antiangiogenic therapy (vascular casts, micro CT); type: in vivo, mouse
Procedure: A tumor model can be generated by inoculating human non-small cell lung tumor cell line (A549 from ATCC, Inc.) subcutaneously in immunodeficient mice (SCID). SCID male mice (6-8 weeks old from Charles River Inc.) are inoculated subcutaneously in the lower back with a suspension of 1×10^6 human lung tumor cells (A549) in 0.2 ml of PBS. All mice are fed normal chow diet throughout the duration of the experiment. All mice weights are measured throughout the experiment. Tumor size is measured with calipers twice-a-week and tumor volume is calculated using the formula Length^2×Width×0.52. All mice are randomized into two treatment groups (approximately 10 mice per group) when the median tumor volume reaches approximately 500 mm^3. The treatment groups can be treated according to the following schedule using intraperitoneal (i.p.) administration of either a control composition or an anti-angiogenic compound. For example, different levels of an anti-angiogenic compound can be used and the results compared to a control group that is not treated with an anti-angiogenic compound (e.g., Avastin® available from Genentech, South San Francisco, Calif.). For example:
Group 1: Control group—treated with saline/PBS twice a week.
Group 2: High Avastin®—treated with Avastin® at 5 mg/kg/i.p. twice a week.
Group 3: Low Avastin®—treated with Avastin® at 0.5 mg/kg/i.p. twice a week.
Experiments are terminated 1.5 weeks after initial treatment.
At the end-point, all mice are anesthetized and systemically perfused with a casting agent.
In some embodiments, a tissue, for example, a tumor tissue, is perfused with a contrast and/or a casting agent prior to image acquisition. Methods of tissue perfusion are well known to those of skill in the art. In some embodiments, a tissue is perfused with Mercox, a casting agent available, for example, from Ladd Research, Williston, Vt. Mercox perfusion can be performed, as follows. An initial anticoagulation step for each animal is performed using an i.v. injection of heparin (10,000 U/ml, 0.3 cc/mouse). After 30 minutes, the animals are anesthetized. Each animal's heart is cannulated and the animal perfused with warm physiological saline at physiological pressure (with an open vein draining the organ or with an open vena cava). Perfusion is continued until the organ or animal is clear of blood. Mercox monomer is filtered through a 0.5 μm filter and a casting resin is prepared by mixing 8 ml Mercox, 2 ml methylmethacrylate, and 0.3 ml catalyst. The resin is infused through the same cannula until the onset of polymerization (the resin changes color to brown and emits heat, ˜10 min). The organ or animal is carefully immersed in a 60° C. water bath for 2 hours (or overnight in a sealed container). The tissue is removed by incubating in alternating rinses of 5% KOH and distilled water (for example in a 60° C. water bath sealed) followed by thorough rinsing in distilled water. The cast is cleaned in 5% formic acid for 15 minutes and rinsed thoroughly in distilled water and frozen in distilled water. The resulting block of ice is lyophilized (care should be taken not to melt the ice, the ice should […] as it lyophilizes). The resulting cast can be analyzed to identify one or more structural characteristics of interest.
Xenotopic mouse models obtained as described in Example 7 can be treated with either a control solution of saline/PBS or an anti-angiogenic preparation of Avastin® at 0.5 mg/kg/i.p. as described above. At the end-point, vascular casts can be prepared as described in Example 8 above and may be analyzed for two treated mice (both treated with Avastin® at 0.5 mg/kg/i.p.) and one control mouse. However, other experimental configurations may be used. The resulting vascular casts can be scanned using a micro CT-scanner and exemplary results of the structural analysis are shown in FIGS. 44-47. […] The blood vessel population distributions were consistent for both treated animals. […]

[2] = test system: mouse tumor model generated using H1975 cells; test: Hot spot analysis in mouse tumor model; type: in vivo
Text: Applicant has appreciated that vascular information (e.g., based on vascular geometry) within a region (e.g., a wrapped 3D region) may be analyzed to identify one or more hot spots. For example, a threshold number of poker chips may be identified as a threshold for a hot spot within a unit volume of a tumor. The relative amount (e.g., percentage) of tumor vasculature that is represented by a hot spot then may be determined. This value may be used to evaluate the tumor (e.g., for diagnostic or prognostic purposes) or to evaluate a tumor response to therapy. In a non-limiting example, a hot spot may be defined as a cubic millimeter that contains more than 10,000 poker chips. FIGS. 73 and 74 illustrate experiments where the percentage represented by the hot spot regions (e.g., as a percentage of unit volumes within a tumor volume that are above the threshold for defining a hotspot) are evaluated in a mouse tumor model in response to Avastin treatment. The mouse tumor model was generated using H1975 cells. Mice were compared with and without Avastin treatment (Avastin provided for 10 days as described herein). The tumors analyzed were approximately 100 cubic mm in size. […]

vasculature = test: Morphological features as a function of vessel diameter, control vs treated vasculature; type: in vivo; conditions: control vasculature vs vasculature treated with Avastin, FIGS. 30-32
Text: As discussed above, computed morphological features may be used to compare the same features obtained from healthy tissue, or to compare the same features extracted from a bounded vasculature at different points in time to, for example, assess the effectiveness of treatment. FIGS. 30-33 illustrate examples of using various morphological properties described herein to, for example, quantify diseased vasculature and/or assess the effectiveness of a particular treatment. FIGS. 30-32 illustrate plots of a respective morphological feature as a function of vessel diameter for a control vasculature and for a vasculature treated with Avastin. […] Moreover, the impact may differ depending on the vessel size. That is, differences between the control and treated plots may be larger or smaller depending on the diameter of the vessel. Applicant has appreciated that the differences may be quantified to define a range wherein differences are different enough to help determine which vessel diameters are being targeted and impacted by the treatment.

[3] = Avastin-treated vs non-treated control glioblastoma, FIG. 55
[4] = 0.5 mg/kg/i.p., treated vs untreated tumors

## bevacizumab [Avastin]
glioblastoma; [3]
  hot spot density: significant decrease
  necrotic region volume: significant increase
  vessel volume density: significant decrease
glioblastoma; control vs treated tumor, FIG. 53
  frequency of microvascular density bins: different microvascular density bin distribution
[1]; 0.5 mg/kg/i.p., treated vs control group at the end of the experiment
  mean tumor volumes: did not differ significantly
[1]; 0.5 mg/kg/i.p., treated vs control, FIGS. 54-67
  blood vessel density: differences in blood vessel density were detected
[1]; [4]
  percentage of middle diameter sized vessels: higher percentage
  small diameter sized vessels, less than untreated tumors: 20%
[1]; large approximately 147-161 μm, middle approximately 33-77 μm, after treatment
  vessel population ratio between large and middle size vessels: decreased
[1]; small approximately 21-35 μm, middle approximately 35-49 μm, after inhibitor treatment
  vessel population ratio between small and middle size vessels: decreased
[2]; Avastin provided for 10 days, over the time of the experiment, FIG. 73
  mean percentage of hot spot regions: decrease
[2]; change of about 40% to about 10%, Avastin for 10 days, hot spot = cubic millimeter with more than 10,000 poker chips
  percentage of hot spot regions after treatment: about 10%
vasculature
  morphological features as a function of vessel diameter: there are differences

Reference: patent US10235756B2, “Vascular analysis methods and apparatus” (Bio-Tree Systems, Inc., priority 2009, dated 2019)
